# Reference: patent US9174964B2, “AMPK-activating piperidinyloxy-substituted 2,3-dihydro-1H-indene-1-amine compounds and pharmaceutical compositions including the same” (Rigel Pharmaceuticals, Inc., priority 2007, dated 2015)
# pEC50: −log10 of the molar value. Where a name gives a salt, the structure may show the parent alone.
# Target: AMPK
# Assay: AMPK activation, enzyme-linked immunosorbent assay
# Format: biochemical
# Details: Table 2, AMPK activation, ELISA
# Description: Compounds 1-50 of Table 1 were assayed for their ability to activate AMPK using an enzyme-linked immunosorbent assay.
# Compounds 51-60 of Table 1 were assayed for their ability to activate AMPK using an enzyme-linked immunosorbent assay.
# Compounds 61-131 of Table 1 were assayed for their ability to activate AMPK using an enzyme-linked immunosorbent assay.
# Compounds 137-141 and 143-155 of Table 1 were assayed for their ability to activate AMPK using an enzyme-linked immunosorbent assay.
# Compounds 156-160 of Table 1 were assayed for their ability to activate AMPK using an enzyme-linked immunosorbent assay.
row,pEC50,Structure (SMILES)
1,6.00 to 6.30,"O=C(NC1CCN(CCc2ccccc2)CC1)c1ccc(OC2CCN(c3ccc(C(F)(F)F)cc3)CC2)cn1 [Compound 36, N-(1-phenethylpiperidin-4-yl)-5-(1-(4-(trifluoromethyl)phenyl)piperidin-4-yloxy)picolinamide]"
2,5.00 to 5.30,"O=C(N[C@@H]1CCNC1)c1ccc(OC2CCN(c3ccc(C(F)(F)F)cc3)CC2)cn1 [Compound 24, (R)-N-(pyrrolidin-3-yl)-5-(1-(4-(trifluoromethyl)phenyl)piperidin-4-yloxy)picolinamide]"
3,6.30 to 7.00,"N#Cc1ccc(N2CCC(Oc3ccc(C(=O)NC4CCN(Cc5ccncc5)CC4)nc3)CC2)cc1 [Compound 1, 5-(1-(4-cyanophenyl)piperidin-4-yloxy)-N-(1-(pyridin-4-ylmethyl)piperidin-4-yl)picolinamide]"
4,> 7.00,"CC(C)(C)OC(=O)NCCCNC(=O)c1ccc(OC2CCN(c3ccc(C(F)(F)F)cc3)CC2)cn1 [Compound 49, tert-butyl 3-(5-(1-(4-(trifluoromethyl)phenyl)piperidin-4-yloxy)picolinamido) propylcarbamate]"
5,5.30 to 6.00,"O=C(NC1CCN(Cc2c[nH]cn2)CC1)c1ccc(OC2CCN(c3ccc(C(F)(F)F)cc3)CC2)cn1 [Compound 48, N-(1-((1H-imidazol-4-yl)methyl)piperidin-4-yl)-5-(1-(4-(trifluoromethyl)phenyl)piperidin-4-yloxy)picolinamide]"
6,> 7.00,"O=C(NC1CCN(Cc2ccncc2)CC1)c1ccc(OC2CCN(c3ccc(C(F)(F)F)cc3)CC2)cn1 [Compound 3, N-(1-(pyridin-4-ylmethyl)piperidin-4-yl)-5-(1-(4-(trifluoromethyl)phenyl)piperidin-4-yloxy)picolinamide]"
7,5.30 to 6.00,"O=C(NC1CN(Cc2ccncc2)C1)c1ccc(OC2CCN(c3ccc(C(F)(F)F)cc3)CC2)cn1 [Compound 42, N-(1-(pyridin-4-ylmethyl)azetidin-3-yl)-5-(1-(4-(trifluoromethyl)phenyl)piperidin-4-yloxy)picolinamide]"
8,5.30 to 6.00,"O=C(NCCCNCc1ccncc1)c1ccc(OC2CCN(c3ccc(C(F)(F)F)cc3)CC2)cn1 [Compound 50, N-(3-(pyridin-4-ylmethylamino)propyl)-5-(1-(4-(trifluoromethyl)phenyl)piperidin-4-yloxy)picolinamide]"
9,6.00 to 6.30,"O=C(NC1CCN(Cc2ccncc2)CC1)c1ccnc(OC2CCN(c3ccc(C(F)(F)F)cc3)CC2)c1 [Compound 20, N-(1-(pyridin-4-ylmethyl)piperidin-4-yl)-2-(1-(4-(trifluoromethyl)phenyl)piperidin-4-yloxy)isonicotinamide]"
10,6.30 to 7.00,"N#Cc1ccc(CN2CCC(NC(=O)c3ccnc(OC4CCN(c5ccc(C(F)(F)F)cc5)CC4)c3)CC2)cc1 [Compound 21, N-(1-(4-cyanobenzyl)piperidin-4-yl)-2-(1-(4-(trifluoromethyl)phenyl)piperidin-4-yloxy)isonicotinamide]"

# Same assay, conditions: Table 3, AMPK activation, ELISA
row,pEC50,Structure (SMILES)
1,6.30 to 7.00,"N#Cc1ccc(CN2CCC(Oc3ccc(S(=O)(=O)NC4CCN(Cc5ccncc5)CC4)cn3)CC2)cc1 [Compound 53, 6-(1-(4-cyanobenzyl)piperidin-4-yloxy)-N-(1-(pyridin-4-ylmethyl)piperidin-4-yl)pyridine-3-sulfonamide]"
2,5.30 to 6.00,"O=S(=O)(NC1CCNCC1)c1ccc(OC2CCN(c3ccc(C(F)(F)F)cc3)CC2)nc1 [Compound 55, N-(piperidin-4-yl)-6-(1-(4-(trifluoromethyl)phenyl)piperidin-4-yloxy)pyridine-3-sulfonamide]"
3,6.30 to 7.00,"O=S(=O)(NC1CCN(Cc2ccncc2)CC1)c1ccc(OC2CCN(c3ccc(C(F)(F)F)cc3)CC2)nc1 [Compound 51, N-(1-(pyridin-4-ylmethyl)piperidin-4-yl)-6-(1-(4-(trifluoromethyl)phenyl)piperidin-4-yloxy)pyridine-3-sulfonamide]"

# Same assay, conditions: Table 4, AMPK activation, ELISA
row,Structure (SMILES),pEC50
1,"O=C(NC1CCNCC1)c1cc2ccc(OC3CCN(c4ccc(C(F)(F)F)cc4)CC3)cc2o1 [Compound 84, N-(piperidin-4-yl)-6-(1-(4-(trifluoromethyl)phenyl)piperidin-4-yloxy)benzofuran-2-carboxamide hydrochloride]",4.30 to 5.00
2,"CC(C)(C)OC(=O)N1CC[C@H](NC(=O)c2cc3cc(OC4CCN(Cc5ccc(Cl)cc5)CC4)ccc3o2)C1 [Compound 127, (S)-tert-butyl 3-(5-(1-(4-chlorobenzyl)piperidin-4-yloxy)benzofuran-2-carboxamido)pyrrolidine-1-carboxylate]",5.00 to 6.00
3,"N#Cc1ccccc1CN1CCC(NC(=O)c2cc3ccc(OC4CCN(c5ccc(OC(F)(F)F)cc5)CC4)cc3o2)CC1 [Compound 97, N-(1-(2-cyanobenzyl)piperidin-4-yl)-6-(1-(4-(trifluoromethoxy)phenyl)piperidin-4-yloxy)benzofuran-2-carboxamide]",> 7.00
4,"N#Cc1ccc(CN2CCC(NC(=O)c3cc4ccc(OC5CCN(c6ccc(OC(F)(F)F)cc6)CC5)cc4o3)CC2)cc1 [Compound 89, N-(1-(4-cyanobenzyl)piperidin-4-yl)-6-(1-(4-(trifluoromethoxy)phenyl)piperidin-4-yloxy)benzofuran-2-carboxamide]",> 7.00
5,"Cc1c(C(=O)NC2CCN(Cc3ccc(F)cc3)CC2)oc2cc(OC3CCN(c4ccc(C(F)(F)F)cc4)CC3)ccc12 [Compound 63, N-(1-(4-fluorobenzyl)piperidin-4-yl)-3-methyl-6-(1-(4-(trifluoromethyl)phenyl)piperidin-4-yloxy)benzofuran-2-carboxamide]",> 7.00
6,"Cc1c(C(=O)NC2CCN(C(=O)OC(C)(C)C)CC2)oc2cc(OC3CCN(c4ccc(C(F)(F)F)cc4)CC3)ccc12 [Compound 61, tert-butyl 4-(3-methyl-6-(1-(4-(trifluoromethyl)phenyl)piperidin-4-yloxy)benzofuran-2-carboxamido)piperidine-1-carboxylate]",6.30 to 7.00
7,"O=C(NC1CCN(Cc2ccccc2)CC1)c1cc2cc(OC3CCN(Cc4cccc(C(F)(F)F)c4)CC3)ccc2o1 [Compound 73, N-(1-benzylpiperidin-4-yl)-5-(1-(3-(trifluoromethyl)benzyl)piperidin-4-yloxy)benzofuran-2-carboxamide]",6.00 to 6.30
8,"CC(C)(C)OC(=O)N1CCC(NC(=O)c2cc3cc(OC4CCN(c5ccc(C(F)(F)F)cc5)CC4)ccc3o2)CC1 [Compound 85, tert-butyl 4-(5-(1-(4-(trifluoromethyl)phenyl)piperidin-4-yloxy)benzofuran-2-carboxamido)piperidine-1-carboxylate]",6.00 to 6.30
9,"CN(C(=O)c1cc2cc(OC3CCN(c4ccc(C(F)(F)F)cc4)CC3)ccc2o1)C1CCN(Cc2ccccn2)CC1 [Compound 117, N-methyl-N-(1-(pyridin-2-ylmethyl)piperidin-4-yl)-5-(1-(4-(trifluoromethyl)phenyl)piperidin-4-yloxy)benzofuran-2-carboxamide]",> 7.00
10,"O=C(N[C@H]1CCN(Cc2cccnc2)C1)c1cc2cc(OC3CCN(Cc4ccc(Cl)cc4)CC3)ccc2o1 [Compound 130, (S)-5-(1-(4-chlorobenzyl)piperidin-4-yloxy)-N-(1-(pyridin-3-ylmethyl)pyrrolidin-3-yl)benzofuran-2-carboxamide]",5.00 to 6.00
11,"CN(C(=O)c1cc2cc(OC3CCN(c4ccc(C(F)(F)F)cc4)CC3)ccc2o1)C1CCN(Cc2cccc(C#N)c2)CC1 [Compound 110, N-(1-(3-cyanobenzyl)piperidin-4-yl)-N-methyl-5-(1-(4-(trifluoromethyl)phenyl)piperidin-4-yloxy)benzofuran-2-carboxamide]",> 7.00
12,"CC(C)(C)OC(=O)N1CC[C@@H](NC(=O)c2cc3cc(OC4CCN(c5ccc(C(F)(F)F)cc5)CC4)ccc3o2)C1 [Compound 120, (R)-tert-butyl 3-(5-(1-(4-(trifluoromethyl)phenyl)piperidin-4-yloxy)benzofuran-2-carboxamido)pyrrolidine-1-carboxylate]",5.00 to 6.00
13,"O=C(N[C@H]1CCNC1)c1cc2cc(OC3CCN(Cc4ccc(Cl)cc4)CC3)ccc2o1 [Compound 128, (S)-5-(1-(4-chlorobenzyl)piperidin-4-yloxy)-N-(pyrrolidin-3-yl)benzofuran-2-carboxamide]",< 4.30

# Next, values leading:
row,pEC50,Structure (SMILES)
1,5.00 to 6.00,"O=C(N[C@@H]1CCN(C(=O)c2ccncc2)C1)c1cc2cc(OC3CCN(c4ccc(C(F)(F)F)cc4)CC3)ccc2o1 [Compound 125, (R)-N-(1-isonicotinoylpyrrolidin-3-yl)-5-(1-(4-(trifluoromethyl)phenyl)piperidin-4-yloxy)benzofuran-2-carboxamide]"
2,> 7.00,"O=C(NC1CCN(Cc2ccncc2)CC1)c1cc2ccc(OC3CCN(c4ccc(OC(F)(F)F)cc4)CC3)cc2o1 [Compound 88, N-(1-(pyridin-4-ylmethyl)piperidin-4-yl)-6-(1-(4-(trifluoromethoxy)phenyl)piperidin-4-yloxy)benzofuran-2-carboxamide]"

# Same assay, conditions: Table 5, AMPK activation, ELISA
row,pEC50,Structure (SMILES)
1,4.30 to 6.00,"CC(C)(C)OC(=O)N1CCC(NC(=O)c2sc3cc(OC4CCN(c5ccc(C(F)(F)F)cc5)CC4)ccc3c2Cl)CC1 [Compound 147, tert-butyl 4-(3-chloro-6-(1-(4-(trifluoromethyl)phenyl)piperidin-4-yloxy)benzo[b]thiophene-2-carboxamido)piperidine-1-carboxylate]"
2,6.30 to 7.00,"N#Cc1cccc(CN2CCC(NC(=O)c3cc4ccc(OC5CCN(c6ccc(C(F)(F)F)cc6)CC5)cc4s3)CC2)c1 [Compound 145, N-(1-(3-cyanobenzyl)piperidin-4-yl)-6-(1-(4-(trifluoromethyl)phenyl)piperidin-4-yloxy)benzo[b]thiophene-2-carboxamide]"
3,> 7.00,"CC(C)(C)OC(=O)N1CCC(NC(=O)c2cc3cc(OC4CCN(c5ccc(C(F)(F)F)cc5)CC4)ccc3s2)CC1 [Compound 149, tert-butyl 4-(5-(1-(4-(trifluoromethyl)phenyl)piperidin-4-yloxy)benzo[b]thiophene-2-carboxamido)piperidine-1-carboxylate]"
